How the values were obtained:
Japanese OAB patients [1] = test: twelve-week randomized, double-blind, placebo-controlled, parallel-group study of nocturnal pollakiuria in OAB patients; assay type: in vivo, human; settings: for Difference in amount of change (vibegron group − placebo group), least squares mean (95% confidence interval) / Amount of change from baseline in the frequency of urination at night, least squares mean (95% confidence interval): 12 weeks
Experimental: The efficacy of vibegron on nocturnal pollakiuria in OAB patients was evaluated in a twelve-week randomized, double-blind, placebo-controlled, parallel-group study.
Japanese OAB patients received either vibegron (50 mg/day or 100 mg/day) or a placebo for 12 weeks. Both 50 mg/day of vibegron and 100 mg/day of vibegron were orally administered in the form of a tablet once daily after breakfast. […] There was no difference among the dose groups in terms of subject background such as gender, age, and BMI.
The therapeutic effect of vibegron on nocturnal pollakiuria in OAB patients was evaluated based on an average frequency of urination at night, which was determined by using a urination diary to investigate the frequency of urination for three days prior to visits. In this context, nighttime is defined as the period of time between when one goes to bed to sleep and when one wakes up and gets out of bed. Constrained longitudinal data analysis model (cLDA) was used for statistical analysis to estimate the least squares mean and the two-sided 95% confidence interval of each group. Furthermore, the cLDA method was used to estimate the least squares mean difference at evaluation times between the 50 mg or 100 mg vibegron groups and the placebo group and the two-sided 95% confidence intervals thereof, thereby testing the least squares mean difference compared with placebo.
Numerical values in Table 2 represent the average of the frequency of urination at night at baseline (before drug administration), the least squares mean of the amount of change from baseline in the average frequency of urination at night after 12 weeks of administration, the least squares mean of difference in the amount of change between the vibegron groups and the placebo group, and p-values. In this regard, when the amount of change is less than 0, the smaller value represents a greater therapeutic effect. […] “Patients whose frequency of urination at night is not zero at baseline” are represented as a main subject population, and other “patients whose frequency of urination at night is one or more times at baseline” and “patients whose frequency of urination at night is two or more times at baseline” are represented as populations who have more prominent symptoms of nocturnal pollakiuria. FIG. 1 is a graph in which the numerical values represent the least squares mean (ΔLSmean) of the amount of change from baseline in the frequency of urination at night after 12 weeks of administration.

Japanese OAB patients [2] = test: as above; assay type: in vivo, human; settings: for Least squares mean of the amount of change from baseline in the first voided volume at night / Least squares mean of the amount of change from baseline in the time to first awakening (HUS) / Least squares mean of the amount of change from baseline in the single voided volume at night: patients with frequency of urination at night one or more times per day at baseline; for Least squares mean of the amount of change from baseline in the first voided volume at night: placebo 24.80 mL; for Least squares mean of the amount of change from baseline in the time to first awakening (HUS): placebo 65.08 minutes; for Least squares mean of the amount of change from baseline in the single voided volume at night: placebo +19.42 mL
[3] = 50 mg and 100 mg groups, patients with nocturnal pollakiuria with nocturnal polyuria, one or more times per day at baseline
[4] = 50 mg/day oral, patients whose frequency of urination at night is two or more times at baseline
[5] = 100 mg/day oral, patients whose frequency of urination at night is not zero at baseline
[6] = 50 mg and 100 mg groups, patients with nocturnal pollakiuria without nocturnal polyuria, one or more times per day at baseline

## O=C(Nc1ccc(C[C@@H]2CC[C@H]([C@H](O)c3ccccc3)N2)cc1)[C@@H]1CCc2nccc(=O)n21 [Vibegron, (6S)—N-[4-({(2S,5R)-5-[(R)-hydroxy(phenyl)methyl]pyrrolidin-2-yl}methyl)phenyl]-4-oxo-4,6,7,8-tetrahydropyrrolo[1,2-a]pyrimidine-6-carboxamide]
Japanese OAB patients [1]; [3]
  Frequency of urination at night compared with the placebo group: reduced in the 50 mg vibegron group and the 100 mg vibegron group compared with the placebo group but the difference was not significant
Japanese OAB patients [1]; 50 mg/day oral, patients whose frequency of urination at night is not zero at baseline
  Difference in amount of change (vibegron group − placebo group), least squares mean (95% confidence interval): −0.11 (−0.21, −0.02)
Japanese OAB patients [1]; 50 mg/day oral, patients whose frequency of urination at night is one or more times at baseline
  Difference in amount of change (vibegron group − placebo group), least squares mean (95% confidence interval): −0.16 (−0.28, −0.04)
Japanese OAB patients [1]; [4]
  Amount of change from baseline in the frequency of urination at night, least squares mean (95% confidence interval): −1.00 (−1.17, −0.83)
  Difference in amount of change (vibegron group − placebo group), least squares mean (95% confidence interval): −0.15 (−0.38, 0.08)
Japanese OAB patients [1]; [5]
  Amount of change from baseline in the frequency of urination at night, least squares mean (95% confidence interval): −0.62 (−0.70, −0.55)
  Difference in amount of change (vibegron group − placebo group), least squares mean (95% confidence interval): −0.16 (−0.25, −0.06)
Japanese OAB patients [1]; 100 mg/day oral, patients whose frequency of urination at night is one or more times at baseline
  Difference in amount of change (vibegron group − placebo group), least squares mean (95% confidence interval): −0.21 (−0.33, −0.09)
Japanese OAB patients [1]; 100 mg/day oral, patients whose frequency of urination at night is two or more times at baseline
  Amount of change from baseline in the frequency of urination at night, least squares mean (95% confidence interval): −1.16 (−1.34. −0.99)
Japanese OAB patients [2]; [3]
  Single voided volume at night compared with the placebo group: significantly increased
Japanese OAB patients [2]; [6]
  Frequency of urination at night compared with the placebo group: significantly reduced
  Single voided volume at night compared with the placebo group: significantly increased
Japanese OAB patients [2]; 50 mg/day oral, 12 weeks, patients whose frequency of urination at night is not zero at baseline
  Amount of change from baseline in the frequency of urination at night, least squares mean (95% confidence interval): −0.58 (−0.65, −0.51)
Japanese OAB patients [2]; 50 mg/day oral, 12 weeks, patients whose frequency of urination at night is one or more times at baseline
  Amount of change from baseline in the frequency of urination at night, least squares mean (95% confidence interval): −0.74 (−0.82, −0.65)
Japanese OAB patients [2]; 50 mg/day, 12 weeks
  Least squares mean of the amount of change from baseline in the first voided volume at night: 48.71 mL
  Least squares mean of the amount of change from baseline in the time to first awakening (HUS): 81.79 min
  Least squares mean of the amount of change from baseline in the single voided volume at night: +47.85 mL
Japanese OAB patients [2]; 100 mg/day oral, 12 weeks, patients whose frequency of urination at night is one or more times at baseline
  Amount of change from baseline in the frequency of urination at night, least squares mean (95% confidence interval): −0.78 (−0.87, −0.70)
Japanese OAB patients [2]; 100 mg/day oral, 12 weeks, patients whose frequency of urination at night is two or more times at baseline
  Difference in amount of change (vibegron group − placebo group), least squares mean (95% confidence interval): −0.31 (−0.55, −0.08)
Japanese OAB patients [2]; 100 mg/day, 12 weeks
  Least squares mean of the amount of change from baseline in the first voided volume at night: 71.42 mL
  Least squares mean of the amount of change from baseline in the time to first awakening (HUS): 90.95 min
  Least squares mean of the amount of change from baseline in the single voided volume at night: +58.14 mL

— patent US11376253B2, “Agent for treating nocturnal pollakiuria” (KYORIN PHARMACEUTICAL CO., LTD., priority 2017, dated 2022)
